Laboratory results taken from US20260234164A1, “BIPHENYL COMPOUND AS IMMUNOMODULATOR, PREPARATION METHOD THEREFOR AND USE THEREOF” (SHENZHEN CHIPSCREEN BIOSCIENCES CO., LTD., priority 2021, published 2026).

Tests used:
[1] = target: T1, PD-1/PD-L1 binding (Homo sapiens, UniProt Q9NZQ7); assay: HTRF inhibition of PD-1/PD-L1 binding in vitro; conditions: His-PD-1 100 nM, PD-L1-Fc 2 nM, read-out: IC50 inhibiting PD-1/PD-L1 binding in vitro
T1 construct: purchased Sino Biological Inc. 10084-H02H-100 (PD-L1-Fc); 10377-H08H-50 (His-PD-1)
T1 sequence (Q9NZQ7 19-239 limits assumed): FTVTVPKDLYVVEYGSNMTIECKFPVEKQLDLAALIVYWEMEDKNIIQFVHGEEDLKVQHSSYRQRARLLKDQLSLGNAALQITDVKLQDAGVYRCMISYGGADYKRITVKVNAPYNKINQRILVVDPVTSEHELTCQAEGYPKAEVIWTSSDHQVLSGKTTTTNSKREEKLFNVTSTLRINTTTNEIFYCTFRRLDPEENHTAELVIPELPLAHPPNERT
From the text: Homogeneous Time-Resolved Fluorescence (HTRF): This method used the recombinant human PD-L1 protein fused to express the hFc tag and the recombinant human PD-1 protein fused to express the His tag, both of which were interacting ligands and receptors. When the anti-hFc antibody containing Eu element chelation marker and the anti-His antibody labeled with XL665 fluorescein were bound with the above two corresponding labels, and excited by a laser with a wavelength of 320 nm, the ligand-receptor binding enabled the energy to be transferred from the Eu element to the XL665 fluorescein, which was excited to emit light at a wavelength of 665 nm. However, when an inhibitor of the interaction between PD-L1 and PD-1 was added, the binding of the ligand to the receptor was destroyed, so that the distance between Eu and XL665 was far away, the energy cannot be transferred, and XL665 would not be excited.
(§1) Recombinant human PD-1 protein with His tag (His-PD-1 protein, Cat #: 10377-H08H-50), and recombinant human PD-L1-Fc fusion protein (PD-L1-Fc fusion protein, Cat #: 10084-H02H-100) were purchased from Sino Biological Inc., anti-hFc-Eu^+ antibody and anti-His-XL665 antibody were purchased from Cisbio Company, and other related reagents such as dilution buffer (Diluent buffer 5, Cat #: 62DL5DDC), detection buffer (PPI-Europium detection buffer, Cat #: 61DB9RDF) were purchased from Cisbio Company. Fluorescence detection instrument Tecan (Spark 10 M) was purchased from Switzerland Tecan Company.
(§2) (1) Experimental preparation: The test compound was diluted with dilution buffer into different concentration gradients (the highest final concentration in 20 μL final reaction system was 10 μM), His-PD-1 protein was diluted to 800 nM (the final concentration in 20 μL final reaction system was 100 nM), and the PD-L1-Fc fusion protein was diluted to 16 nM (final concentration was 2 nM). The anti-His-XL665 antibody and anti-hFc-Eu^3+ antibody were respectively diluted 20 times and 100 times using the detection buffer according to the reagent requirements.
(§3) (2) 5 μL of test compound, 2.5 μL of PD-L1-Fc fusion protein and 2.5 μL of His-PD-1 protein solution were mixed, and incubated at room temperature for 15 min. Then the system was added with 5 μL of anti-His-XL665 antibody and 5 μL of anti-hFc-Eu^3+ antibody, incubated for another 3 h, and then detected.
(3) When detecting the reaction, a control group was also provided, including a 0% inhibition positive control without adding test compounds and a 100% inhibition negative control without adding PD-1 protein. All detections were performed with duplicates.
(§4) (4) The fluorescence signal of each well was measured using a fluorescence detector Tecan (Spark 10M) at an excitation wavelength of 320 nm, and emission wavelengths of 620 nm and 665 nm, respectively. The intensity of the mutual binding of PD-1 and PD-L1 referred to the ratio of fluorescence signals Em665/Em620.
(§5) (5) The binding inhibition rate of the test compound was calculated as follows: Inhibition rate (%)=[1−(Fluorescence signal ratio of detection well-fluorescence signal ratio of 100% inhibition negative control)]/(fluorescence signal ratio of 0% inhibition positive control-fluorescence signal ratio of 100% inhibition negative control)×100%. After calculating the inhibition rate on PD-1/PD-L1 binding of the test compounds with different concentration gradients, the 50% inhibitory concentration (IC50) was calculated.

[2] = target: T2, CD80/PD-L1 binding (Homo sapiens, UniProt Q9NZQ7); assay: HTRF inhibition of CD80/PD-L1 binding in vitro; conditions: His-CD80 100 nM, PD-L1-Fc 2 nM, read-out: IC50 inhibiting CD80/PD-L1 binding in vitro
T2 construct: purchased Sino Biological Inc. 10084-H02H-100 (PD-L1-Fc); 10698-H08H-100 (His-CD80)
T2 sequence (Q9NZQ7 19-239 limits assumed): as above
From the text: In addition to PD-1, PD-L1 can also exert immunosuppressive activity by binding to CD80. Similarly, in vitro experiments of binding or binding inhibition of CD80 and PD-L1 can also be measured by homogeneous time-resolved fluorescence (HTRF). When the anti-hFc-Eu^3+ antibody and anti-His-XL665 antibody were bound to the hFC tag fused to PD-L1 and the His tag fused to CD80 respectively, and excited with a 320 nm wavelength laser, the binding of PD-L1 and CD80 enabled energy to be transferred from the Eu element to the XL665 fluorescein, which was excited to emit light. When the inhibitor of the interaction between PD-L1 and CD80 was added, the combination of the two was destroyed, so that the distance between Eu and XL665 was far away, the energy cannot be transferred, and XL665 would not be excited.
as §1, with “CD80” for “PD-1”, “(His-CD80” for “(His-PD-1”, “10698-H08H-100),” for “10377-H08H-50),”, “anti-hFc-Eu^3+” for “anti-hFc-Eu^+”
as §2, with “His-CD80” for “His-PD-1”
as §3, with “Hid-CD80” for “PD-L1-Fc fusion”, “[…]” for “His-PD-1”
(3) When detecting the reaction, a control group was provided, including a 0% inhibition positive control without adding test compounds and a 100% inhibition negative control without adding CD-80 protein. All detections were performed with duplicates.
as §4, with “CD80” for “PD-1”
as §5, with “CD80/PD-L1” for “PD-1/PD-L1”

Q: Which IC50 [1] does the source give for [2H]C([2H])([2H])OCC12CCC(CCN3CCc4c(nc(C(=O)Nc5cccc(-c6cccc(NC(=O)c7nc8c(n7C)CCN(CCC79CCC(C(=O)O)(CC7)C9)C8)c6Cl)c5Cl)n4C)C3)(CC1)C2 [Compound I-1, 4-(2-(2-((2,2′-dichloro-3′-(5-(2-(4-((methoxy-d3)methyl)bicyclo[2.2.1]heptane-1-yl)ethyl)-1-methyl-4,5,6,7-tetrahydro-1H-imidazo[4,5-c]pyridine-2-carboxamido)-[1,1′-biphenyl]-3-yl)carbamoyl)-1-methyl-1,4,6,7-tetrahydro-5H-imidazo[4,5-c]pyridin-5-yl)ethyl)bicyclo[2.2.1]heptane-1-carboxylic acid] here?
A: 0.72 nM

Q: What about the IC50 [2] of the same molecule?
A: 0.58 nM

Q: [2H]C([2H])([2H])n1c(C(=O)Nc2cccc(-c3cccc(NC(=O)c4nc5c(n4C([2H])([2H])[2H])CCN(CCC46CCC(C(=O)O)(CC4)C6)C5)c3Cl)c2C)nc2c1CCN(CCC13CCC(COC)(CC1)C3)C2 [Compound I-10, 4-(2-(2-((2-chloro-3′-(5-(2-(4-(methoxymethyl)bicyclo[2.2.1]heptane-1-yl)ethyl)-1-(methyl-d3)-4,5,6,7-tetrahydro-1H-imidazo[4,5-c]pyridine-2-carboxamido)-2′-methyl-[1,1′-biphenyl]-3-yl)carbamoyl)-1-(methyl-d3)-1,4,6,7-tetrahydro-5H-imidazo[4,5-c]pyridin-5-yl)ethyl)bicyclo[2.2.1]heptane-1-carboxylic acid] was tested. Which IC50 [1] did it give?
A: 3.59 nM

Q: And the IC50 [2]?
A: 4.26 nM

Q: How did the IC50 [1] turn out when [2H]C([2H])([2H])n1c(C(=O)Nc2cccc(-c3cccc(NC(=O)c4nc5c(n4C([2H])([2H])[2H])CCN(CCC46CCC(C(=O)O)(CC4)C6)C5)c3Cl)c2Cl)nc2c1CCN(CCC13CCC(COC)(CC1)C3)C2 [Compound I-6, 4-(2-(2-((2,2′-dichloro-3′-(5-(2-(4-((methoxy)methyl)bicyclo[2.2.1]heptane-1-yl)ethyl)-1-(methyl-d3)-4,5,6,7-tetrahydro-1H-imidazo[4,5-c]pyridine-2-carboxamido)-[1,1′-biphenyl]-3-yl)carbamoyl)-1-(methyl-d3)-1,4,6,7-tetrahydro-5H-imidazo[4,5-c]pyridin-5-yl)ethyl)bicyclo[2.2.1]heptane-1-carboxylic acid] was run?
A: 1 nM

Q: And the IC50 [2]?
A: 0.95 nM

Q: For [2H]c1c([2H])c(NC(=O)c2nc3c(n2C)CCN(CCC24CCC(COC([2H])([2H])[2H])(CC2)C4)C3)c(F)c(-c2c([2H])c([2H])c([2H])c(NC(=O)c3nc4c(n3C)CCN(CCC35CCC(C(=O)O)(CC3)C5)C4)c2Cl)c1[2H] (single isomer, unassigned) [Compound I-14, 4-(2-(2-((2-chloro-2′-fluoro-3′-(5-(2-(4-((methoxy-d3)methyl)bicyclo[2.2.1]heptane-1-y 1)ethyl)-1-methyl-4,5,6,7-tetrahydro-1H-imidazo[4,5-c]pyridine-2-carboxamido)-[1,1′-biphenyl]-3-yl-4,4′,5,5′,6,6′-d6)carbamoyl)-1-methyl-1,4,6,7-tetrahydro-5H-imidazo[4,5-c]pyridin-5-yl)ethyl)bicyclo[2.2.1]heptane-1-carboxylic acid], which IC50 [1] is on record?
A: 0.51 nM

Q: What about the IC50 [2] of the same molecule?
A: 0.37 nM

Q: What does the source list for [2H]c1c([2H])c(NC(=O)c2nc3c(n2C([2H])([2H])[2H])CCN(CCC24CCC(COC([2H])([2H])[2H])(CC2)C4)C3)c(Cl)c(-c2c([2H])c([2H])c([2H])c(NC(=O)c3nc4c(n3C([2H])([2H])[2H])CCN(CCC35CCC(C(=O)O)(CC3)C5)C4)c2Cl)c1[2H] [Compound I-13, 4-(2-(2-((2,2′-dichloro-3′-(5-(2-(4-((methoxy-d3)methyl)bicyclo[2.2.1]heptane-1-yl)ethyl)-1-(methyl-d3)-4,5,6,7-tetrahydro-1H-imidazo[4,5-c]pyridine-2-carboxamido)-[1,1′-biphenyl]-3-yl-4,4′, 5,5′,6,6′-d6)carbamoyl)-1-(methyl-d3)-1,4,6,7-tetrahydro-5H-imidazo[4,5-c]pyridin-5-yl)ethyl)bicyclo[2.2.1]heptane-1-carboxylic acid]?
A: IC50 [1]: 1.23 nM; IC50 [2]: 1.44 nM

Q: How did the IC50 [1] turn out when [2H]C([2H])([2H])OCC12CCC(CCN3CCc4c(nc(C(=O)Nc5cccc(-c6cccc(NC(=O)c7nc8c(n7C)CCN(CCC79CCC(C(=O)O)(CC7)C9)C8)c6C)c5Cl)n4C)C3)(CC1)C2 [Compound I-3, 4-(2-(2-((2′-chloro-3′-(5-(2-(4-((methoxy-d3)methyl)bicyclo[2.2.1]heptane-1-yl)ethyl)-1-methyl-4,5,6,7-tetrahydro-1H-imidazo[4,5-c]pyridine-2-carboxamido)-2-methyl-[1,1′-biphenyl]-3-yl)carbamoyl)-1-methyl-1,4,6,7-tetrahydro-5H-imidazo[4,5-c]pyridin-5-yl)ethyl)bicyclo[2.2.1]heptane-1-carboxylic acid] was run?
A: 2.9 nM

Q: What about the IC50 [2] of the same molecule?
A: 1.78 nM

Q: [2H]C([2H])([2H])OCC12CCC(CCN3CCc4c(nc(C(=O)Nc5cccc(-c6cccc(NC(=O)c7nc8c(n7C)CCN(CCC79CCC(C(=O)O)(CC7)C9)C8)c6Cl)c5C)n4C)C3)(CC1)C2 [Compound I-4, 4-(2-(2-((2-chloro-3′-(5-(2-(4-((methoxy-d3)methyl)bicyclo[2.2.1]heptane-1-yl)ethyl)-1-methyl-4,5,6,7-tetrahydro-1H-imidazo[4,5-c]pyridine-2-carboxamido)-2′-methyl-[1,1′-biphenyl]-3-yl)carbamoyl)-1-methyl-1,4,6,7-tetrahydro-5H-imidazo[4,5-c]pyridin-5-yl)ethyl)bicyclo[2.2.1]heptane-1-carboxylic acid] was tested. Which IC50 [1] did it give?
A: 2.8 nM

Q: And the IC50 [2]?
A: 1.75 nM
